US20240425518A1, “N-MACROCYCLIC AMIDE COMPOUNDS, PREPARATION METHODS THEREOF AND APPLICATIONS THEREOF AS MEDICAMENTS” (Chengdu FANXI Biopharma Co., Ltd., priority 2023, published 2024)

Legend:
Flt3 (D835Y) (h) = target: T1, Flt3 (D835Y) (h) (Homo sapiens, UniProt P36888, D835Y); assay: Radioisotope labeling kinase assay (Eurofins), Flt3 (D835Y); type: biochemical; conditions: for activity at 1 µM: 1 μM compound, read-out: Inhibitory activity per unit concentration/Activity % Flt3 (D835Y) (h)
T1 construct: purchased Eurofins
T1 sequence (P36888 27-993 D835Y): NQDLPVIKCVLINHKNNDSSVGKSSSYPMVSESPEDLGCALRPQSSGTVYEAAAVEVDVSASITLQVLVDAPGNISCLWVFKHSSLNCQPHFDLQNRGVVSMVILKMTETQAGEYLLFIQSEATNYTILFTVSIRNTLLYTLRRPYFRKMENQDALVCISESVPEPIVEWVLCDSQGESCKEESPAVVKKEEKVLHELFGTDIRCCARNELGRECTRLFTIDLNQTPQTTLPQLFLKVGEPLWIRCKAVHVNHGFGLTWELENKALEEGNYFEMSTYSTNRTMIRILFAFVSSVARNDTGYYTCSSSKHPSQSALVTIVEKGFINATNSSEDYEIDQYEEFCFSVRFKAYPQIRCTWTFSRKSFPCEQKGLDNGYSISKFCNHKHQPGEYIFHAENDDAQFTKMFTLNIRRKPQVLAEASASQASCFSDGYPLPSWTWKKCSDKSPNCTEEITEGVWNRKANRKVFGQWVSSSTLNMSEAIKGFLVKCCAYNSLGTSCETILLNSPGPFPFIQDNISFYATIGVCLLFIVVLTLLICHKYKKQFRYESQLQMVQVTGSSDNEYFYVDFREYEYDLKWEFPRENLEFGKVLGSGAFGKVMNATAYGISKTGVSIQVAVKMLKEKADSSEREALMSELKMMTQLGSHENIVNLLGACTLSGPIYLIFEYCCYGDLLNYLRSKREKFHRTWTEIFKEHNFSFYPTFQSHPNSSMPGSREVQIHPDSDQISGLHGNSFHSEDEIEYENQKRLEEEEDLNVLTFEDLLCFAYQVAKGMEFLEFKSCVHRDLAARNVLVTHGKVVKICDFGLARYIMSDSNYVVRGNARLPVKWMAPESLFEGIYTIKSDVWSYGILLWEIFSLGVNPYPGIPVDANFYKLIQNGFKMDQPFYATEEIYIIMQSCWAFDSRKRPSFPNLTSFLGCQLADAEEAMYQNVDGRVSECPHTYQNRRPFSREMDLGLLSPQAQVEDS

TrkA (h) = target: T2, TrkA (h) (Homo sapiens, UniProt P04629); assay: Radioisotope labeling kinase assay (Eurofins), TrkA; type: biochemical
T2 construct: purchased Eurofins
T2 sequence (P04629 33-796): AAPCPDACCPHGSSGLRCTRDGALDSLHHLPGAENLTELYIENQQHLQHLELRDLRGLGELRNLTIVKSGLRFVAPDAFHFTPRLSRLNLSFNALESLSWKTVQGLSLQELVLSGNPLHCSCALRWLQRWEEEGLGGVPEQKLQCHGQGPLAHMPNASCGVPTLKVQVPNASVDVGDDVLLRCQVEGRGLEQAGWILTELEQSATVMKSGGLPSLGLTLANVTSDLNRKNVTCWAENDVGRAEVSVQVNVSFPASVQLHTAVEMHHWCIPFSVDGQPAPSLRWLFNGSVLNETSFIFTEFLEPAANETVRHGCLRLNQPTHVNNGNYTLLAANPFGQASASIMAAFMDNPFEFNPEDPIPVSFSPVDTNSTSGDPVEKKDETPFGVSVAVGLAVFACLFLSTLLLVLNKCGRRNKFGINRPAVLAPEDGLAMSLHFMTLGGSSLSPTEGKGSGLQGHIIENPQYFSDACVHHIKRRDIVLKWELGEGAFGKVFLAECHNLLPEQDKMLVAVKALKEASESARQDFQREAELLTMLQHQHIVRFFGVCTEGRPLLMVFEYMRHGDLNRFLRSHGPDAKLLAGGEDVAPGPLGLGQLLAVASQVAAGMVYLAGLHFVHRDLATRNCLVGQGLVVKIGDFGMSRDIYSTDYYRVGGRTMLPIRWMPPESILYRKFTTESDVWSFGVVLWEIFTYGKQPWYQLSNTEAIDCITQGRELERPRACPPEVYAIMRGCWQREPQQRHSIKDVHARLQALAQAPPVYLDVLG
Experimental: (§1) An activity to a human recombinant protein kinase of a series of compounds was determined by a radioisotope labeling method, which was provided by Eurofins Company. A compound to be detected was mixed with a corresponding protein kinase buffer (20 mM propyl sulfonate (MOPS, […].), 1 mM EDTA, 0.10 β-mercaptoethanol, 0.010 Brij-35, […], and 1 mg/mL BSA), the mixture was added into a reaction system (100 μM reaction substrate […], 8 mM MOPS with a pH value of 7.0, 10 mM MgAcetate, 0.2 mM EDTA, and a certain concentration of γ-^33P-ATP). After adding an MgATP composite solution, the reaction was started at room temperature for 40 minutes, and the reaction was terminated by adding 5 μl of […] solution. Then, 10 μl of reaction solution was dropwise added onto a filter and washed with 75 mM phosphoric acid solution for three times, 5 minutes each time, then washed with methanol once again, and dried and subjected to scintillation counting.

KDR (h) = target: T3, KDR (h) (Homo sapiens, UniProt P35968); assay: Radioisotope labeling kinase assay (Eurofins), KDR; type: biochemical
T3 construct: purchased Eurofins
Experimental: as §1

JAK1 (h) = target: T4, JAK1 (h) (Homo sapiens, UniProt P23458); assay: Radioisotope labeling kinase assay (Eurofins), JAK1; type: biochemical
T4 construct: purchased Eurofins
T4 sequence (P23458 whole entry): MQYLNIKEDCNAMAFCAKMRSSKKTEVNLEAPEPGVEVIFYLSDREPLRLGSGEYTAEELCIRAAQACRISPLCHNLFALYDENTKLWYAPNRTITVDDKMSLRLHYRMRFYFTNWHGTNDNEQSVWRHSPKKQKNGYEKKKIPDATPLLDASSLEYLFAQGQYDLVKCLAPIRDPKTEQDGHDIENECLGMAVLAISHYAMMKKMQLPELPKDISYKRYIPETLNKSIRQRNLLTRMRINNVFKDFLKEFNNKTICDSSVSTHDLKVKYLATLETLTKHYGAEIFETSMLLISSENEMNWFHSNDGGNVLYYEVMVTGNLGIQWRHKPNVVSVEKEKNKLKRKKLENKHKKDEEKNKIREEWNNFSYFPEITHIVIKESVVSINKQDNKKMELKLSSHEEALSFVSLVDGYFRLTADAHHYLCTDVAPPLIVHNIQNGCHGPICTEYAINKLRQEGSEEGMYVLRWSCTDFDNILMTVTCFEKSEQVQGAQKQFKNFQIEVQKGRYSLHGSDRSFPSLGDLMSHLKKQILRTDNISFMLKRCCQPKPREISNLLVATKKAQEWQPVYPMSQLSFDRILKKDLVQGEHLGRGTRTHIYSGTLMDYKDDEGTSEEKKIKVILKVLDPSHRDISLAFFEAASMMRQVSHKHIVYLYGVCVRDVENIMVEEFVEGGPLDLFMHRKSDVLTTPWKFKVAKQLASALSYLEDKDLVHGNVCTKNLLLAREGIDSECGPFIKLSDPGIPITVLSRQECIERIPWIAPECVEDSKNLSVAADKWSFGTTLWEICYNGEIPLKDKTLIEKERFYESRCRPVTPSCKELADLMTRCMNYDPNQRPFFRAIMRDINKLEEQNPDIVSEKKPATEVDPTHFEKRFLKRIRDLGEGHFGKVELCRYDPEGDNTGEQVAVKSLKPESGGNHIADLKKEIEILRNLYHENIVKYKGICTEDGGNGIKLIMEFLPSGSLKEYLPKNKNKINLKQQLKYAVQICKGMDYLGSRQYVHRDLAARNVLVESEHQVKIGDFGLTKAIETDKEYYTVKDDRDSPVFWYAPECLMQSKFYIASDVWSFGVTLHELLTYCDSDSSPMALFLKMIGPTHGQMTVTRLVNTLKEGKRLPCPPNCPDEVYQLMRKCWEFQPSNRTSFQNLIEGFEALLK
Experimental: as §1

EGFR (T790M, L858R) (h) = target: T5, EGFR (T790M, L858R) (h) (Homo sapiens, UniProt P00533, L858R/T790M); assay: Radioisotope labeling kinase assay (Eurofins), EGFR (T790M, L858R); type: biochemical
T5 construct: purchased Eurofins
T5 sequence (P00533 25-1210 T790M/L858R): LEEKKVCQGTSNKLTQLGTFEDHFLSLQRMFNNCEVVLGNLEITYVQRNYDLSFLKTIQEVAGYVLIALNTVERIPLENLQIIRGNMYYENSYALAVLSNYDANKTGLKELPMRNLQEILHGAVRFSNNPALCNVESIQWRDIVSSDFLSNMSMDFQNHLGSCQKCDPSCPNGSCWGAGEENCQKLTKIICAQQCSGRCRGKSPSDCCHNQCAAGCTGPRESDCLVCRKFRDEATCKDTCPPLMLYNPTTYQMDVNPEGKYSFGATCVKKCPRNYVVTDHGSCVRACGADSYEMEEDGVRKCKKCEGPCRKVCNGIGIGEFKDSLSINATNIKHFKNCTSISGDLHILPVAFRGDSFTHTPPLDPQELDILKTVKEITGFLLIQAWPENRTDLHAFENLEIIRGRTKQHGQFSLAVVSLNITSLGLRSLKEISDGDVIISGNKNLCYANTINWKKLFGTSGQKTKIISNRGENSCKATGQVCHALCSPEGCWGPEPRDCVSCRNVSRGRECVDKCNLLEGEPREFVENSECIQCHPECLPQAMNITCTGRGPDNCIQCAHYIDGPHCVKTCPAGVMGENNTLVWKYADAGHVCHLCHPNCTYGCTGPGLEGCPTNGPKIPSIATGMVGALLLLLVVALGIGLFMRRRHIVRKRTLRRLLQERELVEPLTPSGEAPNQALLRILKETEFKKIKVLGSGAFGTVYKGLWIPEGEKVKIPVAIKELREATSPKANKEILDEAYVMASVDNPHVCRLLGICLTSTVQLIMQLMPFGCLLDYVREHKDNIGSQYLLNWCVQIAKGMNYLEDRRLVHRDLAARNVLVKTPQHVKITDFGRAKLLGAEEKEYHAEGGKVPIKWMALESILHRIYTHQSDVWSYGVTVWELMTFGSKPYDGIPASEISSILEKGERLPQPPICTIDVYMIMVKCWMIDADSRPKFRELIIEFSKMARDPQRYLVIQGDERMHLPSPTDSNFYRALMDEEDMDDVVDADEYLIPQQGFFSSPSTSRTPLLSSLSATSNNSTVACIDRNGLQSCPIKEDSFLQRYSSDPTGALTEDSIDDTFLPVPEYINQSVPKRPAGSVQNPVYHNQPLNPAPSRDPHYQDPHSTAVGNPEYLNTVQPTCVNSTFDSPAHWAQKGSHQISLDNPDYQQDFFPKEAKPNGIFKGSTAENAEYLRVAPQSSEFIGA
Experimental: as §1

Ret (h) = target: T6, Ret (h) (Homo sapiens, UniProt P07949); assay: Radioisotope labeling kinase assay (Eurofins), Ret; type: biochemical
T6 construct: purchased Eurofins
T6 sequence (P07949 29-1114): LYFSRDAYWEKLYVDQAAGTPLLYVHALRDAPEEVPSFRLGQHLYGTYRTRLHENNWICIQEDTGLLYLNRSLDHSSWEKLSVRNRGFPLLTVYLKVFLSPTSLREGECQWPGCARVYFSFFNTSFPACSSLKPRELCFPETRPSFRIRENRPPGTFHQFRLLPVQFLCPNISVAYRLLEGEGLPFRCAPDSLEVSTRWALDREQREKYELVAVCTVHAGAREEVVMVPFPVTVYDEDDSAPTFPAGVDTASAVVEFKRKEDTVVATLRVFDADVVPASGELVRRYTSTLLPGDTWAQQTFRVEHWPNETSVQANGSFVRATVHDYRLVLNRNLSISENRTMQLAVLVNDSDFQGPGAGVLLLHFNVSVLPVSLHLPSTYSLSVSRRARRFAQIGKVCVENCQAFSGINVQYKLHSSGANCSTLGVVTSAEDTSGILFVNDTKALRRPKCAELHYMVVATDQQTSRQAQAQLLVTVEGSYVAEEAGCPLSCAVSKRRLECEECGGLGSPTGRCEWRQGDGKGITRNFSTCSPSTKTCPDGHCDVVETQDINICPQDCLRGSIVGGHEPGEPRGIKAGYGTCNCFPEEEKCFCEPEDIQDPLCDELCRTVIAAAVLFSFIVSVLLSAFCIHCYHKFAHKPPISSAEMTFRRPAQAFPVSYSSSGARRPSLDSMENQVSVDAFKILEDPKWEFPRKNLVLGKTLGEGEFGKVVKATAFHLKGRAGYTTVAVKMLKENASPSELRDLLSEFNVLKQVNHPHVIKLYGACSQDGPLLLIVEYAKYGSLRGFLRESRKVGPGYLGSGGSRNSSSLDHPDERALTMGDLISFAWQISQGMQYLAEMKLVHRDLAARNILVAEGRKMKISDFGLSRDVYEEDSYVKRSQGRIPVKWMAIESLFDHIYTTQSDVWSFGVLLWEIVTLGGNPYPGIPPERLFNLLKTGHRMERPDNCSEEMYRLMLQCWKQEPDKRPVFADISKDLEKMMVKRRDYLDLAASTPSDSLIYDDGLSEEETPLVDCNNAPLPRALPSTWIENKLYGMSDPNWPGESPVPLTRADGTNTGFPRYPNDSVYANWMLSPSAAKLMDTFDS
Experimental: as §1

Ab1 (h) = target: T7, Ab1 (h) (Homo sapiens, UniProt P00519); assay: Radioisotope labeling kinase assay (Eurofins), Ab1; type: biochemical; conditions: for activity at 1 µM: 1 μM compound, read-out: Inhibitory activity per unit concentration/Activity % Ab1 (h)
T7 construct: purchased Eurofins

[1] = test system: HL-60 Human acute myelogenous leukemia; assay: MTT cell proliferation inhibition, HL-60; type: cell-based; conditions: HL-60, 72 hours
Experimental: (§2) Human cancer cells were purchased from ATCC. The cells were cultured in a culture medium according to the work instruction of ATCC. A dose-response curve was drawn by XL-fitting to determine an IC50 value of a compound. […] Cell proliferation inhibition could be detected by a MTT method (3-(4,5-Dimethylthiazol-2-yl)-2,5-diphenyltetrazolium bromide, and MTT; and 3-(4,5-dimethyl thiazole-2)-2,5-diphenyltertazolium bromide, and thiazolyl blue).
(§3) The cells were cultured in a culture dish first, and the cells in a logarithmic growth phase were inoculated into a 96-well plate (3,000 to 5,000 adherent cells/well, 10,000 to 30,000 suspended cells/well) according to a specific number, with 100 microliters per well, and then cultured in an incubator of 5% CO2 and 37° C. […] An absorbance of a general control group should be a normal value between 0.8 and 1.2. After obtaining absorbance data, a change curve of an inhibition rate was fitted by GraphPad Prism6.03 software and an IC50 value was calculated.
(§4) Calculation of drug inhibition rate: relative cell proliferation inhibition rate=[(control group A570−experimental group A570)/control group […], wherein A570 represented the absorbance at 570 nm.

[2] = test system: RPMI 8226 Human myeloma cells; assay: MTT cell proliferation inhibition, RPMI 8226; type: cell-based; conditions: RPMI 8226, 72 hours
Experimental: as §2, §3, §4

[3] = test system: HGC-27 Human gastric cancer cells; assay: MTT cell proliferation inhibition, HGC-27; type: cell-based; conditions: HGC-27, 72 hours
Experimental: as §2, §3, §4

[4] = test system: K562 Human acute myelogenous leukemia; assay: MTT cell proliferation inhibition, K562; type: cell-based; conditions: K562, 72 hours
Experimental: as §2, §3, §4

[5] = test system: Aspc-1 Human pancreatic cancer cells; assay: MTT cell proliferation inhibition, Aspc-1; type: cell-based; conditions: ASPC1, Aspc-1, 72 hours
Experimental: as §2, §3, §4

[6] = test system: MGC-803 Human gastric cancer cells; assay: MTT cell proliferation inhibition, MGC-803; type: cell-based; conditions: MGC-803, 72 hours
Experimental: as §2, §3, §4

Nc1cc2cc(c1)Nc1nccc(n1)-c1cccc(c1)COC/C=C/COC2 [XIII-1]
IC50 (Flt3 (D835Y) (h)): 9 nM | activity at 1 µM (Flt3 (D835Y) (h)): -1% | IC50 (TrkA (h)): 2 nM | IC50 (KDR (h)): 50 nM | IC50 (JAK1 (h)): 17 nM | IC50 (EGFR (T790M, L858R) (h)): 19 nM | IC50 (Ret (h)): 123 nM | activity at 1 µM (Ab1 (h)): 11%

O=C(/C=C/CN1CCCC1)Nc1cc2cc(c1)Nc1nccc(n1)-c1cccc(c1)COC/C=C/COC2 [XVI-1]
IC50 [1]: 326 nM | IC50 (Flt3 (D835Y) (h)): 3 nM | activity at 1 µM (Flt3 (D835Y) (h)): -1% | IC50 [2]: 463 nM | IC50 (TrkA (h)): 1 nM | IC50 [3]: 110 nM | IC50 (KDR (h)): 17 nM | IC50 (JAK1 (h)): 69 nM | IC50 (EGFR (T790M, L858R) (h)): 10 nM | IC50 [4]: 470 nM | IC50 [5]: 689 nM | IC50 (Ret (h)): 66 nM | IC50 [6]: 573 nM | activity at 1 µM (Ab1 (h)): -1%

O=C(/C=C/CN1CCOCC1)Nc1cc2cc(c1)Nc1nccc(n1)-c1cccc(c1)COC/C=C/COC2 [XVI-3]
IC50 [1]: 866 nM | IC50 (Flt3 (D835Y) (h)): 5 nM | activity at 1 µM (Flt3 (D835Y) (h)): 1% | IC50 [2]: 2040 nM | IC50 (TrkA (h)): 2 nM | IC50 [3]: 495 nM | IC50 (KDR (h)): 21 nM | IC50 (JAK1 (h)): 44 nM | IC50 (EGFR (T790M, L858R) (h)): 21 nM | IC50 [4]: 2880 nM | IC50 [5]: 2480 nM | IC50 (Ret (h)): 145 nM | IC50 [6]: 2760 nM | activity at 1 µM (Ab1 (h)): 8%

C/C=C/C(=O)Nc1cc2cc(c1)Nc1nccc(n1)-c1cccc(c1)COC/C=C/COC2 [XVI-4]
IC50 (Flt3 (D835Y) (h)): 10 nM | activity at 1 µM (Flt3 (D835Y) (h)): -1% | IC50 (TrkA (h)): 2 nM | IC50 (JAK1 (h)): 44 nM | IC50 (EGFR (T790M, L858R) (h)): 60 nM | IC50 (Ret (h)): 314 nM | activity at 1 µM (Ab1 (h)): 11%

C=CC(=O)Nc1cc2cc(c1)Nc1nccc(n1)-c1cccc(c1)COC/C=C/COC2 [XVI-6]
IC50 (Flt3 (D835Y) (h)): 10 nM | activity at 1 µM (Flt3 (D835Y) (h)): -1% | IC50 (TrkA (h)): 2 nM | IC50 (KDR (h)): 61 nM | IC50 (JAK1 (h)): 106 nM | IC50 (EGFR (T790M, L858R) (h)): 64 nM | IC50 (Ret (h)): 202 nM | activity at 1 µM (Ab1 (h)): 17%

CN(C)C/C=C/C(=O)Nc1cc2cc(c1)Nc1nccc(n1)-c1cccc(c1)COC/C=C/COC2 [XVI-8]
IC50 (Flt3 (D835Y) (h)): 9 nM | activity at 1 µM (Flt3 (D835Y) (h)): -2% | IC50 (TrkA (h)): 3 nM | IC50 (KDR (h)): 97 nM | IC50 (JAK1 (h)): 262 nM | IC50 (EGFR (T790M, L858R) (h)): 17 nM | IC50 (Ret (h)): 79 nM | activity at 1 µM (Ab1 (h)): 4%

O=C(O)/C=C/C(=O)Nc1cc2cc(c1)Nc1nccc(n1)-c1cccc(c1)COC/C=C/COC2 [XVI-9]
IC50 (Flt3 (D835Y) (h)): 5 nM | activity at 1 µM (Flt3 (D835Y) (h)): 1% | IC50 (TrkA (h)): 3 nM | IC50 (JAK1 (h)): 19 nM

O=C(/C=C/C(=O)N1CCOCC1)Nc1cc2cc(c1)Nc1nccc(n1)-c1cccc(c1)COC/C=C/COC2 [XVI-10]
IC50 (Flt3 (D835Y) (h)): 4 nM | activity at 1 µM (Flt3 (D835Y) (h)): 5% | IC50 (TrkA (h)): 16 nM | IC50 (KDR (h)): 40 nM | IC50 (JAK1 (h)): 89 nM | IC50 (Ab1 (h)): 139 nM | activity at 1 µM (Ab1 (h)): 9%

O=C(/C=C/C(=O)N1CCNCC1)Nc1cc2cc(c1)Nc1nccc(n1)-c1cccc(c1)COC/C=C/COC2 [XVI-11]
IC50 (Flt3 (D835Y) (h)): 6 nM | activity at 1 µM (Flt3 (D835Y) (h)): 1% | IC50 (TrkA (h)): 21 nM | IC50 (KDR (h)): 189 nM | IC50 (JAK1 (h)): 167 nM | IC50 (Ab1 (h)): 34 nM | activity at 1 µM (Ab1 (h)): -1%

C1=C/COCc2cccc(c2)-c2ccnc(n2)Nc2cc(cc(OC/C=C/CN3CCCC3)c2)COC/1 [XVI-12]
IC50 (Flt3 (D835Y) (h)): 3 nM | activity at 1 µM (Flt3 (D835Y) (h)): 7% | IC50 (TrkA (h)): 18 nM | IC50 (JAK1 (h)): 492 nM

CN(C)C/C=C/C(=O)Nc1cc2cc(c1)Nc1nccc(n1)-c1cccc(c1)COC/C=C/CN(C)C2 [XVI-26]
IC50 (Flt3 (D835Y) (h)): 17 nM | activity at 1 µM (Flt3 (D835Y) (h)): 0% | IC50 (TrkA (h)): 28 nM | IC50 (KDR (h)): 329 nM | IC50 (JAK1 (h)): 136 nM | IC50 (EGFR (T790M, L858R) (h)): 164 nM | IC50 (Ret (h)): 594 nM | activity at 1 µM (Ab1 (h)): 32%

C/C=C/C(=O)Nc1cc2cc(c1)Nc1nccc(n1)-c1cccc(c1)COC/C=C/CN(C)C2 [XVI-28]
IC50 (Flt3 (D835Y) (h)): 20 nM | activity at 1 µM (Flt3 (D835Y) (h)): 1% | IC50 (TrkA (h)): 20 nM | IC50 (KDR (h)): 76 nM | IC50 (JAK1 (h)): 40 nM | IC50 (EGFR (T790M, L858R) (h)): 300 nM | IC50 (Ret (h)): 1980 nM | activity at 1 µM (Ab1 (h)): 37%

C#CC(=O)Nc1cc2cc(c1)Nc1nccc(n1)-c1cccc(c1)COC/C=C/COC2 [XVII-1]
IC50 (Flt3 (D835Y) (h)): 7 nM | activity at 1 µM (Flt3 (D835Y) (h)): -1% | IC50 (TrkA (h)): 2 nM | IC50 (JAK1 (h)): 33 nM | IC50 (EGFR (T790M, L858R) (h)): 39 nM | IC50 (Ret (h)): 110 nM | activity at 1 µM (Ab1 (h)): 1%
